Results on one substance are retold here after patent US12453769B2 (priority 2019, dated 2025).

For this assay, the system named is gE-specific IFN-γ. Details: species or system C57BL/6(N) mice. Conditions: mouse, in vivo.

Regarding QS-21, the “induced production level of gE-specific IFN-γ (ELISPOT spot)” value is “the best effect”.
